25 compounds from US9681664B2, “Macrocyclic picolinamides as fungicides” (Dow Agrosciences LLC, priority 2012, dated 2017) can be followed below.

For test [1], the system named is Mycosphaerella graminicola; Anamorph: Septoria tritici. The test can be described thus: Leaf blotch of wheat (SEPTTR) disease control on wheat seedlings. It is filed as in vivo. The note with it: Zymoseptoria tritici, High volume application, 100 ppm. The method, then: Technical grades of materials were dissolved in acetone, which were then mixed with nine volumes of water containing 110 ppm Triton X-100. The fungicide solutions were applied onto wheat seedlings using an automated booth sprayer to run-off. All sprayed plants were allowed to air dry prior to further handling. All fungicides were evaluated using the aforementioned method for their activity vs. all target diseases. Wheat leaf blotch and brown rust activity were also evaluated using track spray applications, in which case the fungicides were formulated as EC formulations, containing 0.1% Trycol 5941 in the spray solutions. Wheat plants (variety Yuma) were grown from seed in a greenhouse in 50% mineral soil/50% soil-less Metro mix until the first leaf was fully emerged, with 7-10 seedlings per pot. These plants were inoculated with an aqueous spore suspension of Septoria tritici either prior to or after fungicide treatments. After inoculation the plants were kept in 100% relative humidity (one day in a dark dew chamber followed by two to three days in a lighted dew chamber at 20° C.) to permit spores to germinate and infect the leaf. The plants were then transferred to a greenhouse set at 20° C. for disease to develop. When disease symptoms were fully expressed on the 1st leaves of untreated plants, infection levels were assessed on a scale of 0 to 100 percent disease severity. Percent disease control was calculated using the ratio of disease severity on treated plants relative to untreated plants.

In test [2] the test system is Puccinia triticina; Synonym: Puccinia recondite f. sp. tritici. The test can be described thus: Wheat brown rust (PUCCRT) disease control on wheat seedlings. The class given is in vivo. The note with it: Puccinia triticina, High volume application, 100 ppm. The protocol: Technical grades of materials were dissolved in acetone, which were then mixed with nine volumes of water containing 110 ppm Triton X-100. The fungicide solutions were applied onto wheat seedlings using an automated booth sprayer to run-off. All sprayed plants were allowed to air dry prior to further handling. All fungicides were evaluated using the aforementioned method for their activity vs. all target diseases. Wheat leaf blotch and brown rust activity were also evaluated using track spray applications, in which case the fungicides were formulated as EC formulations, containing 0.1% Trycol 5941 in the spray solutions. Wheat plants (variety Yuma) were grown from seed in a greenhouse in 50% mineral soil/50% soil-less Metro mix until the first leaf was fully emerged, with 7-10 seedlings per pot. These plants were inoculated with an aqueous spore suspension of Puccinia triticina either prior to or after fungicide treatments. After inoculation the plants were kept in a dark dew room at 22° C. with 100% relative humidity overnight to permit spores to germinate and infect the leaf. The plants were then transferred to a greenhouse set at 24° C. for disease to develop. Fungicide formulation, application and disease assessment followed the procedures as described in the Example A.

The mark [3] stands for this setting: 24 h, 1 Day Protectant, read-out: SEPTTR 1DP disease control.
[4] abbreviates: 72 h, 3 Day Curative, read-out: SEPTTR 3DC disease control.
[5] abbreviates: 24 h, 1 Day Protectant, read-out: PUCCRT 1DP disease control.
Setting [6] is: 72 h, 3 Day Curative, read-out: PUCCRT 3DC disease control.

Molecules are shown by their SMILES. Read-outs that look alike come from different tables or passages of the source. Some results are limits rather than exact numbers.

For `C=C(C)CO[C@H]1[C@H](C)OC(=O)[C@@H](NC(=O)c2nccc(OC)c2O)CCC[C@@H]1OCC(=C)C` [F14, 3-hydroxy-4-methoxy-N-((3S,7S,8S,9S)-9-methyl-7,8-bis((2-methylallyl)oxy)-2-oxooxonan-3-yl)pyridine-2-carboxamide], the pest or weed control at 100 ppm was less than 0% in test [1] (setting [3]), 80 to 100% in test [1] (setting [4]), 80 to 100% in test [2] (setting [5]) and 80 to 100% in test [2] (setting [6]).

Regarding `COc1ccnc(C(=O)N[C@H]2CCC[C@H](OCc3ccccc3)[C@@H](OCc3ccccc3)[C@H](C)OC2=O)c1O` [F22], the pest or weed control at 100 ppm in test [1] (setting [3]), in test [1] (setting [4]), in test [2] (setting [5]) and in test [2] (setting [6]) was 80 to 100% throughout.

As to `COc1ccnc(C(=O)N[C@H]2CCC[C@H](OCc3ccccc3)[C@@H](Oc3ccccc3)[C@H](C)OC2=O)c1O` [F23], the pest or weed control at 100 ppm in test [1] (setting [3]), in test [1] (setting [4]), in test [2] (setting [5]) and in test [2] (setting [6]) was 80 to 100% in each case.

On to `COc1ccnc(C(=O)N[C@H]2CCC[C@H](Oc3ccccc3)[C@@H](OCc3ccccc3)[C@H](C)OC2=O)c1O` [F24], for which the pest or weed control at 100 ppm in test [1] (setting [3]), in test [1] (setting [4]), in test [2] (setting [5]) and in test [2] (setting [6]) was 80 to 100% each time.

For the compound `COc1ccnc(C(=O)N[C@H]2CCC[C@H](OCC(C)C)[C@@H](Oc3ccccc3)[C@H](C)OC2=O)c1O` [F25], the pest or weed control at 100 ppm in test [1] (setting [3]), in test [1] (setting [4]), in test [2] (setting [5]) and in test [2] (setting [6]) was 80 to 100% in each case.

For the compound `COc1ccnc(C(=O)N[C@H]2CCC[C@H](Oc3ccccc3)[C@@H](OCC(C)C)[C@H](C)OC2=O)c1O` [F27], the pest or weed control at 100 ppm in test [1] (setting [3]), in test [1] (setting [4]), in test [2] (setting [5]) and in test [2] (setting [6]) was 80 to 100% each time.

As to `COc1ccnc(C(=O)N[C@H]2CCC[C@H](Oc3ccccc3)[C@@H](OCc3ccccc3)[C@H](C)OC2=O)c1OCOC(C)=O` [F32], the pest or weed control at 100 ppm in test [1] (setting [3]), in test [1] (setting [4]), in test [2] (setting [5]) and in test [2] (setting [6]) was 80 to 100% throughout.

In the case of `COc1ccnc(C(=O)N[C@H]2CCC[C@H](OCC(C)C)[C@@H](OC3CCCC3)[C@H](C)OC2=O)c1O` [F33], the pest or weed control at 100 ppm in test [1] (setting [3]) lay in the range of 0 to 80%; in test [1] (setting [4]) it was 80 to 100%; in test [2] (setting [5]) it was 80 to 100%; in test [2] (setting [6]), 80 to 100%.

For the compound `COc1ccnc(C(=O)N[C@H]2CCC[C@H](OCC(C)C)[C@@H](OCCCc3ccccc3)[C@H](C)OC2=O)c1O` [F40], the pest or weed control at 100 ppm in test [1] (setting [3]) was 0 to 80%; in test [1] (setting [4]) it was 0 to 80%; in test [2] (setting [5]), 80 to 100%; in test [2] (setting [6]), 80 to 100%.

`COc1ccnc(C(=O)N[C@H]2CCC[C@H](OCC(C)C)[C@@H](OC(=O)C3CC3)[C@H](C)OC2=O)c1OC(C)=O` [F42]: the pest or weed control at 100 ppm in test [1] (setting [3]), in test [1] (setting [4]), in test [2] (setting [5]) and in test [2] (setting [6]) was 80 to 100% throughout.

`COc1ccnc(C(=O)N[C@H]2CCC[C@H](OCC(C)C)[C@@H](OCCCc3ccccc3)[C@H](C)OC2=O)c1OCOC(C)=O` [F43]: the pest or weed control at 100 ppm in test [1] (setting [3]), in test [1] (setting [4]), in test [2] (setting [5]) and in test [2] (setting [6]) was 80 to 100% each time.

On to `COc1ccnc(C(=O)N[C@H]2CCC[C@H](Oc3ccc(F)cc3)[C@@H](Oc3ccc(F)cc3)[C@H](C)OC2=O)c1OCOC(C)=O` [F48], for which the pest or weed control at 100 ppm in test [1] (setting [3]), in test [1] (setting [4]), in test [2] (setting [5]) and in test [2] (setting [6]) was 80 to 100% throughout.

For the compound `COc1ccnc(C(=O)N[C@H]2CCC[C@H](Oc3ccc(F)cc3)[C@@H](Oc3ccc(F)cc3)[C@H](C)OC2=O)c1OCOC(=O)C(C)C` [F49], the pest or weed control at 100 ppm in test [1] (setting [3]), in test [1] (setting [4]), in test [2] (setting [5]) and in test [2] (setting [6]) was 80 to 100% in each case.

Regarding `COc1ccnc(C(=O)N[C@H]2CCC[C@H](OCC(C)C)[C@@H](OCCCC(F)(F)F)[C@H](C)OC2=O)c1OCOC(=O)C(C)C` [F51], the pest or weed control at 100 ppm in test [1] (setting [3]), in test [1] (setting [4]), in test [2] (setting [5]) and in test [2] (setting [6]) was 80 to 100% throughout.

As for `COc1ccnc(C(=O)N[C@H]2CCC[C@H](OCC(C)C)[C@@H](OC(=O)C3CC3)[C@H](C)OC2=O)c1OCOC(=O)C(C)C` [F52], the pest or weed control at 100 ppm in test [1] (setting [3]), in test [1] (setting [4]), in test [2] (setting [5]) and in test [2] (setting [6]) was 80 to 100% each time.

Turning to `COc1ccnc(C(=O)N[C@H]2CCC[C@H](OCC(C)C)[C@@H](OC/C=C/C(F)(F)F)[C@H](C)OC2=O)c1O` [F53], the pest or weed control at 100 ppm in test [1] (setting [3]) was 80 to 100%; in test [1] (setting [4]), 0 to 80%; in test [2] (setting [5]) it was 80 to 100%; in test [2] (setting [6]) it was 80 to 100%.

Consider `COc1ccc(O[C@H]2CCC[C@H](NC(=O)c3nccc(OC)c3O)C(=O)O[C@@H](C)[C@@H]2Oc2ccc(F)cc2)cc1` [F54], for which the pest or weed control at 100 ppm in test [1] (setting [3]) lay in the range of 80 to 100%; in test [1] (setting [4]), 0 to 80%; in test [2] (setting [5]), 80 to 100%; in test [2] (setting [6]), 80 to 100%.

With `COc1ccnc(C(=O)N[C@H]2CCC[C@H](Oc3ccc(F)cc3)[C@@H](OCC(C)C)[C@H](C)OC2=O)c1O` [F56], the pest or weed control at 100 ppm in test [1] (setting [3]), in test [1] (setting [4]), in test [2] (setting [5]) and in test [2] (setting [6]) was 80 to 100% each time.

Consider `COc1ccc(O[C@H]2[C@H](C)OC(=O)[C@@H](NC(=O)c3nccc(OC)c3O)CCC[C@@H]2OCC(C)C)cc1` [F57], for which the pest or weed control at 100 ppm in test [1] (setting [3]), in test [1] (setting [4]), in test [2] (setting [5]) and in test [2] (setting [6]) was 80 to 100% throughout.

Take `COc1ccnc(C(=O)N[C@H]2CCC[C@H](OCC(C)C)[C@@H](OC/C=C/C(F)(F)F)[C@H](C)OC2=O)c1OC(C)=O` [F58]: the pest or weed control at 100 ppm in test [1] (setting [3]), in test [1] (setting [4]), in test [2] (setting [5]) and in test [2] (setting [6]) was 80 to 100% throughout.

For the compound `COc1ccc(O[C@H]2CCC[C@H](NC(=O)c3nccc(OC)c3OCOC(C)=O)C(=O)O[C@@H](C)[C@@H]2Oc2ccc(F)cc2)cc1` [F60], the pest or weed control at 100 ppm in test [1] (setting [3]), in test [1] (setting [4]), in test [2] (setting [5]) and in test [2] (setting [6]) was 80 to 100% throughout.

Consider `COc1ccnc(C(=O)N[C@H]2CCC[C@H](OCC(C)C)[C@@H](Oc3ccc(F)cc3)[C@H](C)OC2=O)c1OCOC(C)=O` [F61], for which the pest or weed control at 100 ppm in test [1] (setting [3]), in test [1] (setting [4]), in test [2] (setting [5]) and in test [2] (setting [6]) was 80 to 100% throughout.

As to `COc1ccnc(C(=O)N[C@H]2CCC[C@H](OCC(C)C)[C@@H](Oc3ccc(F)cc3)[C@H](C)OC2=O)c1OCOC(=O)C(C)C` [F62], the pest or weed control at 100 ppm in test [1] (setting [3]), in test [1] (setting [4]), in test [2] (setting [5]) and in test [2] (setting [6]) was 80 to 100% each time.

Consider `COc1ccc(O[C@H]2[C@H](C)OC(=O)[C@@H](NC(=O)c3nccc(OC)c3O)CCC[C@@H]2Oc2ccc(OC)cc2)cc1` [F64], for which the pest or weed control at 100 ppm in test [1] (setting [3]) is 0 to 80%; in test [1] (setting [4]) it was 0 to 80%; in test [2] (setting [5]), 0 to 80%; in test [2] (setting [6]), less than 0%.

In the case of `COc1ccc(O[C@H]2CCC[C@H](NC(=O)c3nccc(OC)c3O)C(=O)O[C@@H](C)[C@@H]2OCC(C)C)cc1` [F65], the pest or weed control at 100 ppm in test [1] (setting [3]) was 80 to 100%; in test [1] (setting [4]), 0 to 80%; in test [2] (setting [5]), 80 to 100%; in test [2] (setting [6]), 80 to 100%.
